Several values for one entry are separate records, joined by “and”; a condition that tells them apart may be missing. Identical values can stand only once. Entries after “also recorded” stand apart in the source; their conditions may differ.
Tests used:
[1] = system: methionine-enkephalin-induced analgesia; assay: Potentiation of methionine-enkephalin-induced analgesia (hot plate test), product given i.v.; assay type: in vivo, Male Swiss mice; conditions: for Reaction time areas, Product: product alone
Protocol: (§1) Male Swiss mice (CD Charles River) weighing 22-24 g received intracerebroventricular (i.c.v.) injection of methionineenkephalin as described by Haley and Mc Cormick [Br. J. Pharmacol., 12, 12-15, (1957)].
(§2) Methionine-enkephalin was dissolved in distilled water and microinjected in a volume of 10 μl/mouse and in a dose analgesic in less than 30% of animals. The dose (10.25 or 50 μg/mouse) was chosen at the beginning of each experience depending on each batch's analgesic activity.
(§3) The antinociceptive effect was tested by the hot plate test as described by Eddy and Leimbach [(J. Pharmacol. Exptl. Therap., 107, 385-393, (1953)]. The time in seconds from contact with the plate (51.5° C.) to paw licking or Jumping accurrence was recorded as the response latency.
(§4) Animals were removed as soon as they reacted or after 30 seconds if they at 3, 6, 9, 12 and 15 minutes after the i.c.v. treatment and the latency times measured were used to calculate the reaction time areas. At first the compounds of formula I and Bestatin were administered simultaneously to methionine-enkephalin (dissolved in the same solution) by intracerebroventricular treatment to evaluate their activity without any interference due to absorbtion or diffusion through the blood-brain barrier.
Then the compounds of formula I and Bestatin were tested after intravenous (i.v.) administration to study their diffusion across blood-brain barrier.
The administration i.v. of the compounds of formula I and of Bestatin was simultaneous to methionine-enkephalin administration i.c.v.

[2] = system: methionine-enkephalin-induced analgesia; assay: Potentiation of methionine-enkephalin-induced analgesia (hot plate test), product given i.c.v.; assay type: in vivo, Male Swiss mice; conditions: for Reaction time areas, Product Met-enk: product 0.16 μmoles i.c.v. together with Met-enk i.c.v., hot plate; for Reaction time areas, Product: product alone, 0.16 μmoles i.c.v., hot plate 51.5° C., 3-15 min
Protocol: as §1, §2, §3, §4

[3] = product 0.05 mmoles/kg i.v. simultaneous to Met-enk i.c.v.
[4] = product 0.08 mmoles/kg i.v. simultaneous to Met-enk i.c.v.

Row | Compound | Activity of enhancing analgesia induced by opioids when administered by intravenous route ([1]; intravenous route, in words) | Reaction time areas, Product Met-enk [1, 3] | Reaction time areas, Product Met-enk [1, 4] | Reaction time areas, Product ([1]; 0.05 mmoles/kg i.v.) | Reaction time areas, Product ([1]; 0.08 mmoles/kg i.v.) | Reaction time areas, Product Met-enk [2] | Reaction time areas, Product [2] | Reaction time areas, Met-enk ([1]; Met-enk alone i.c.v., control group of each Table 2 experiment) | Reaction time areas, Met-enk ([2]; Met-enk alone i.c.v., control group of each Table 1 experiment)
1 | CC(C)C[C@H](NC(=O)[C@@H](O)[C@H](N)Cc1ccccc1)C(=O)O [Bestatin, [(2S,3R)-3-amino-2-hydroxy-4-phenyl-butanoyl]-L-leucine] | practically inactive; also recorded: not active | 202 ± 6.9 | 212 ± 10.0 | 173 ± 3.7 | 182 ± 8.3 | 268 ± 11.3 | 222 ± 13.3 |  | 
2 | CS(=O)(=O)c1ccc(C[C@@H](N)[C@H](O)C(=O)NC2(C(=O)O)CCCC2)cc1 [Compound 2, 1-[(2S,3R)-3-amino-2-hydroxy-4-(4-methylsulfonyl-phenyl)-butanoyl]-amino-1-cyclopentanecarboxylic acid] |  | 243 ± 15.9 | 233 ± 10.1 | 190 ± 7.8 | 191 ± 8.5 |  |  |  | 
3 | CS(=O)(=O)c1ccc(C[C@@H](N)[C@H](O)C(=O)NC2(C(=O)O)CCC2)cc1 [Compound 4, 1-[(2S,3R)-3-amino-2-hydroxy-4-(4-methylsulfonyl-phenyl)-butanoyl]-amino-1-cyclobutanecarboxylic acid] |  |  |  |  |  | 290 ± 17.1 | 179 ± 9.9 |  | 
4 | Methionine-enkephalin [Met-enk] |  |  |  |  |  |  |  | 199 ± 14.0 and 197 ± 16.7 and 208 ± 8.3 and 200 ± 6.1 and 197 ± 9.7 | 207 ± 15.6 and 173 ± 11.2 and 188 ± 4.7
